From ChEMBL document CHEMBL3885861, “Open TG-GATES”

Species: Rattus norvegicus
Test: Open TG-GATES - Regimen: Single
Format: toxicity, organism-based, Sprague-Dawley
Set-up: regimen Single, gender Male, age 6 weeks
Details: in vivo, po, 15 mg/kg, route gavage, dose level Middle; for APTT / Bas / Eos / Fbg / Hb / Ht / Lym / MCH / MCHC / MCV / Mono / Neu / PT / Plat / RBC / Ret / WBC: tissue Blood; for KIDNEY_L / KIDNEY_R / KIDNEY_TOTAL: tissue Kidney; for LIVER: tissue Liver; for A/G / ALP / ALT / AST / BUN / CRE / Ca / Cl / DBIL / GLC / IP / K / LDH / Na / PL / RALB / TBIL / TC / TG / TP / gamma-GTP: tissue Plasma

Compound: CC(=N)S [THIOACETAMIDE]
- TERMINAL_BW (3 h): 190.8 g
- APTT (3 h): 16.9 s
- Bas (3 h): 0%
- Eos (3 h): 0.2%
- Fbg (3 h): 228 mg/dL
- Hb (3 h): 13.2 g/dL
- Ht (3 h): 39.8%
- Lym (3 h): 82%
- MCH (3 h): 21.7 pg
- MCHC (3 h): 33.1%
- MCV (3 h): 65.4 fL
- Mono (3 h): 8%
- Neu (3 h): 10%
- PT (3 h): 12.4 s
- Plat (3 h): 102.8 x10_4/uL
- RBC (3 h): 608.5 x10_4/ul
- Ret (3 h): 10%
- WBC (3 h): 130 x10_2/uL
- KIDNEY_L (3 h): 0.9 g
- KIDNEY_R (3 h): 0.9 g
- KIDNEY_TOTAL (3 h): 1.8 g
- LIVER (3 h): 8.9 g
- A/G (3 h): 2.4
- ALP (3 h): 868.5 IU/L
- ALT (3 h): 33.8 IU/L
- AST (3 h): 71 IU/L
- BUN (3 h): 11.8 mg/dL
- CRE (3 h): 0.5 mg/dL
- Ca (3 h): 10.9 mg/dL
- Cl (3 h): 104.5 meq/L
- DBIL (3 h): 0.0025 mg/dL
- GLC (3 h): 175.8 mg/dL
- IP (3 h): 9.6 mg/dL
- K (3 h): 4.4 meq/L
- LDH (3 h): 84.2 IU/L
- Na (3 h): 138.8 meq/L
- PL (3 h): 141.5 mg/dL
- RALB (3 h): 4 g/dL
- TBIL (3 h): 0.3 mg/dL
- TC (3 h): 81.5 mg/dL
- TG (3 h): 55 mg/dL
- TP (3 h): 5.7 g/dL
- gamma-GTP (3 h): 3.2 IU/L
- TERMINAL_BW (6 h): 187.8 g
- APTT (6 h): 17.2 s
- Bas (6 h): 0%
- Eos (6 h): 0.6%
- Fbg (6 h): 224.8 mg/dL
- Hb (6 h): 13.4 g/dL
- Ht (6 h): 40.5%
- Lym (6 h): 74.6%
- MCH (6 h): 21.6 pg
- MCHC (6 h): 33.2%
- MCV (6 h): 65.1 fL
- Mono (6 h): 5.8%
- Neu (6 h): 19.4%
- PT (6 h): 12.7 s
- Plat (6 h): 97.4 x10_4/uL
- RBC (6 h): 621.2 x10_4/ul
- Ret (6 h): 10%
- WBC (6 h): 125.4 x10_2/uL
- KIDNEY_L (6 h): 0.9 g
- KIDNEY_R (6 h): 0.9 g
- KIDNEY_TOTAL (6 h): 1.8 g
- LIVER (6 h): 8.4 g
- A/G (6 h): 2.1
- ALP (6 h): 924.4 IU/L
- ALT (6 h): 33 IU/L
- AST (6 h): 70.4 IU/L
- BUN (6 h): 10.2 mg/dL
- CRE (6 h): 0.6 mg/dL
- Ca (6 h): 10.5 mg/dL
- Cl (6 h): 104 meq/L
- DBIL (6 h): 0.022 mg/dL
- GLC (6 h): 171.4 mg/dL
- IP (6 h): 9.1 mg/dL
- K (6 h): 4.9 meq/L
- LDH (6 h): 77 IU/L
- Na (6 h): 137.2 meq/L
- PL (6 h): 142.8 mg/dL
- RALB (6 h): 3.7 g/dL
- TBIL (6 h): 0.4 mg/dL
- TC (6 h): 80 mg/dL
- TG (6 h): 73 mg/dL
- TP (6 h): 5.4 g/dL
- gamma-GTP (6 h): 1 IU/L
- TERMINAL_BW (9 h): 183.3 g
- APTT (9 h): 17.2 s
- Bas (9 h): 0%
- Eos (9 h): 0.6%
- Fbg (9 h): 226 mg/dL
- Hb (9 h): 13.2 g/dL
- Ht (9 h): 40.2%
- Lym (9 h): 67.2%
- MCH (9 h): 21.5 pg
- MCHC (9 h): 33%
- MCV (9 h): 65.1 fL
- Mono (9 h): 8.8%
- Neu (9 h): 23.4%
- PT (9 h): 13.3 s
- Plat (9 h): 107 x10_4/uL
- RBC (9 h): 617.4 x10_4/ul
- Ret (9 h): 9.1%
- WBC (9 h): 126.9 x10_2/uL
- KIDNEY_L (9 h): 0.8 g
- KIDNEY_R (9 h): 0.8 g
- KIDNEY_TOTAL (9 h): 1.7 g
- LIVER (9 h): 7.7 g
- A/G (9 h): 2.2
- ALP (9 h): 887.6 IU/L
- ALT (9 h): 31.6 IU/L
- AST (9 h): 71.6 IU/L
- BUN (9 h): 12.6 mg/dL
- CRE (9 h): 0.5 mg/dL
- Ca (9 h): 10.2 mg/dL
- Cl (9 h): 104.2 meq/L
- DBIL (9 h): 0.006 mg/dL
- GLC (9 h): 178.2 mg/dL
- IP (9 h): 9.8 mg/dL
- K (9 h): 4.5 meq/L
- LDH (9 h): 93.6 IU/L
- Na (9 h): 137.2 meq/L
- PL (9 h): 122.6 mg/dL
- RALB (9 h): 3.8 g/dL
- TBIL (9 h): 0.5 mg/dL
- TC (9 h): 71.6 mg/dL
- TG (9 h): 40.6 mg/dL
- TP (9 h): 5.6 g/dL
- gamma-GTP (9 h): 1.4 IU/L
- TERMINAL_BW (24 h): 202.6 g
- APTT (24 h): 16.4 s
- Bas (24 h): 0%
- Eos (24 h): 1%
- Fbg (24 h): 231.6 mg/dL
- Hb (24 h): 13.5 g/dL
- Ht (24 h): 40.7%
- Lym (24 h): 83.8%
- MCH (24 h): 21.9 pg
- MCHC (24 h): 33.1%
- MCV (24 h): 66.1 fL
- Mono (24 h): 6.2%
- Neu (24 h): 9%
- PT (24 h): 12.8 s
- Plat (24 h): 107.7 x10_4/uL
- RBC (24 h): 616 x10_4/ul
- Ret (24 h): 9.1%
- WBC (24 h): 163 x10_2/uL
- KIDNEY_L (24 h): 1 g
- KIDNEY_R (24 h): 0.9 g
- KIDNEY_TOTAL (24 h): 1.9 g
- LIVER (24 h): 10.2 g
- A/G (24 h): 2
- ALP (24 h): 915.6 IU/L
- ALT (24 h): 44.4 IU/L
- AST (24 h): 71 IU/L
- BUN (24 h): 17.2 mg/dL
- CRE (24 h): 0.5 mg/dL
- Ca (24 h): 10.6 mg/dL
- Cl (24 h): 103.8 meq/L
- DBIL (24 h): 0.014 mg/dL
- GLC (24 h): 179.6 mg/dL
- IP (24 h): 7.5 mg/dL
- K (24 h): 5.1 meq/L
- LDH (24 h): 98.6 IU/L
- Na (24 h): 137 meq/L
- PL (24 h): 164 mg/dL
- RALB (24 h): 3.9 g/dL
- TBIL (24 h): 0.3 mg/dL
- TC (24 h): 85.2 mg/dL
- TG (24 h): 149.8 mg/dL
- TP (24 h): 5.8 g/dL
- gamma-GTP (24 h): 2.4 IU/L
